Data as given in patent US20230190924A1, “ANTIGEN OF ALLERGY AND EPITOPE THEREOF” (HOYU CO., LTD., priority 2017, published 2023).

system: IgE antibodies from patients; test: Epitope mapping (2) overlapping (10-amino-acid peptides) and (3) alanine scanning on peptide arrays; type: binding, human; conditions: overlapping peptides with flanking sequence
Experimental: On the basis of the sequences (SEQ ID NOs: 272-295 for vitellogenin-2 precursor, SEQ ID NOs: 296-303 for vitellogenin-3, SEQ ID NOs: 304-311 for apolipoprotein B precursor, and SEQ ID NOs: 312-318 for vitellogenin-1 or lipovitellin-1) of the peptides bound to an IgE antibody in serum in a patient-specific manner as described above in (A), a library of overlapping peptide fragments (length: 10 amino acids) was prepared using the sequences of the peptides and sequences in which sequences were added so as to flank each peptide in the amino acid sequences of allergen components (amino acid sequences of SEQ ID NO: 59, 106 or 262 for vitellogenin-2 precursor, SEQ ID NO: 2, 13 or 47 for vitellogenin-3, SEQ ID NO: 152, 237 or 251 for apolipoprotein B, and SEQ ID NO: 18 for vitellogenin-1 or lipovitellin-1) comprising the sequences of the peptide to carry out epitope mapping.
The peptides to be synthesized were shifted by one amino acid.
The library was prepared by the same procedure as described above in (A), and the presence or absence of binding of an IgE antibody present in the serum of a patient and a non-egg-allergic subject to each peptide fragment was measured by the same technique as described above. Amino acids at positions where the binding activity against IgE antibodies from patients were lost or decreased in the peptides shifted by one amino acid while binding activity against IgE antibodies from non-egg-allergic subjects arose were confirmed as amino acids adversely affecting the specificity of binding to IgE antibodies.
Chemiluminescence intensity in images obtained by measurement was converted into a numeric value in the same manner as in (A) using ImageQuant TL (GE Healthcare). Numeric values determined from images obtained as a result of using only anti-human IgE antibody-HRP antibody without carrying out the procedures (2) and (3) described above in the subsection titled (3) Spotting of cellulose-bound peptide solution were […] numeric values determined from images obtained from results about the serum of 6 patients. It was determined that a peptide having the resulting value larger than 0 had no binding activity against IgE antibodies when having less than 20% of values obtained using the sequences (amino acid sequences of SEQ ID NO: 59, 106 or 262 for vitellogenin-2, SEQ ID NO: 2, 13 or 47 for vitellogenin-3, SEQ ID NO: 152, 237 or 251 for apolipoprotein B, and SEQ ID NO: 18 for vitellogenin-1 or lipovitellin-1) serving as the basis of overlapping, had binding activity, albeit poor, against IgE antibodies when having 20% or more and less than 50% thereof, had binding activity, albeit somewhat poor, against IgE antibodies when having 50% or more and less than 70% thereof, had almost equivalent binding activity against IgE antibodies when having 70% or more and less than 90% thereof, and had equivalent or good binding activity against IgE antibodies and thus had remaining binding activity against IgE antibodies when having 90% or more thereof.
From the amino acid sequences identified above in (A), a library of peptide fragments in which N-terminal amino acids were substituted one by one by alanine according to a technique called alanine scanning (Non Patent Literature 1) was prepared by the same technique as described above. The presence or absence of binding of an IgE antibody present in the serum of a patient and a non-egg-allergic subject to each peptide fragment was measured by the same technique as described above. Amino acids at positions where the binding activity against IgE antibodies from patients were lost or decreased by the substitution by alanine while binding activity against IgE antibodies from non-egg-allergic subjects arose were confirmed as amino acids important for exertion of original antigenicity, or amino acids influencing exertion of original antigenicity.

| Substance | binding to IgE antibodies from patients, sequence comprising a region amino-terminally adjacent to the epitope | binding to IgE antibodies from patients, sequence comprising a region carboxy-terminally adjacent to the epitope |
| --- | --- | --- |
| SEQ ID NO: 342: sequence comprising a region amino-terminally adjacent to epitope 4 (DAITALKKIA; epitope) | binding to IgE antibodies from patients | – |
| SEQ ID NO: 351: sequence comprising a region carboxy-terminally adjacent to epitope 4 (PKTVQGYL; epitope) | – | binding to IgE antibodies from patients |
| SEQ ID NO: 353: sequence comprising a region amino-terminally adjacent to epitope 5 (CNIALKLLSP; epitope) | binding to IgE antibodies from patients | – |
| SEQ ID NO: 357: sequence comprising a region carboxy-terminally adjacent to epitope 5 (KLDSMSYRY; epitope) | – | binding to IgE antibodies from patients |
| SEQ ID NO: 377: sequence comprising a region amino-terminally adjacent to epitope 8 (IKELGKALQG; epitope) | binding to IgE antibodies from patients | – |
| SEQ ID NO: 381: sequence comprising a region carboxy-terminally adjacent to epitope 8 (LPTETPLVS; epitope) | – | binding to IgE antibodies from patients |
| SEQ ID NO: 385: sequence comprising a region amino-terminally adjacent to epitope 8 (ELGKALQGWK; epitope) | binding to IgE antibodies from patients | – |

More lines, now with the values ahead:

| binding to IgE antibodies from patients, sequence comprising a region amino-terminally adjacent to the epitope | binding to IgE antibodies from patients, sequence comprising a region carboxy-terminally adjacent to the epitope | Substance |
| --- | --- | --- |
| binding to IgE antibodies from patients | – | SEQ ID NO: 319: sequence comprising a region amino-terminally adjacent to epitope 1 (LKVRSPQVEE; epitope) |
| binding to IgE antibodies from patients | – | SEQ ID NO: 324: sequence comprising a region amino-terminally adjacent to epitope 2 (MFQMTIKKS; epitope) |
| – | binding to IgE antibodies from patients | SEQ ID NO: 336: sequence comprising a region carboxy-terminally adjacent to epitope 3 (ALKCIGNMGE; epitope) |
| binding to IgE antibodies from patients | – | SEQ ID NO: 359: sequence comprising a region amino-terminally adjacent to epitope 6 (VVNSPRTMF; epitiope) |
| – | binding to IgE antibodies from patients | SEQ ID NO: 360: sequence comprising a region carboxy-terminally adjacent to epitope 6 (PSAIISKLMA; epitope) |
| binding to IgE antibodies from patients | – | SEQ ID NO: 363: sequence comprising a region amino-terminally adjacent to epitope 6 (VVNSPRT; epitope) |
| – | binding to IgE antibodies from patients | SEQ ID NO: 375: sequence comprising a region carboxy-terminally adjacent to epitope 7 (SAGSVADLVE; epitope) |
| – | binding to IgE antibodies from patients | SEQ ID NO: 380: sequence comprising a region carboxy-terminally adjacent to epitope 8 (ELPTETPLVS; epitope) |
| binding to IgE antibodies from patients | – | SEQ ID NO: 384: sequence comprising a region amino-terminally adjacent to epitope 8 (IKELGKALQG; epitope) |
| – | binding to IgE antibodies from patients | SEQ ID NO: 393: sequence comprising a region carboxy-terminally adjacent to epitope 8 (LPTETPLV; epitope) |

same assay, conditions: procedures (B) overlapping and (C) alanine scanning

| Substance | region within the epitope important for binding to IgE antibodies from patients |
| --- | --- |
| ELL (epitope) [SEQ ID NO: 637] | important for binding |
| SEQ ID NO: 323: region in epitope 1 (VEEYNG; epitope) | important for binding |
| SEQ ID NO: 331: region in epitope 3 (KMKLALKCIG; epitope) | important for binding |
| SEQ ID NO: 339: region in epitope 4 (ALKKIAWKDP; epitope) | important for binding |
| SEQ ID NO: 344: region in epitope 4 (KIAWKDPKTV; epitope) | important for binding |
| SEQ ID NO: 347: region in epitope 4 (LKKIA; epitope) | important for binding |
| SEQ ID NO: 350: region in epitope 4 (AWKDPKTV; epitope) | important for binding |
| SEQ ID NO: 366: region in epitope 6 (SPRTMFPSAI; epitope) | important for binding |
| SEQ ID NO: 369: region in epitope 6 (TMFPSAIISK; epitope) | important for binding |
| SEQ ID NO: 379: region in epitope 8 (KALQGWKELP; epitope) | important for binding |
| SEQ ID NO: 388: region in epitope 8 (KALQGWKEL; epitope) | important for binding |
| SEQ ID NO: 391: region in epitope 8 (GWKELPTET; epitope) | important for binding |
| SEQ ID NO: 392: region in epitope 8 (GWKELPTETP; epitope) | important for binding |

More lines, now with the values ahead:

| region within the epitope important for binding to IgE antibodies from patients | Substance |
| --- | --- |
| important for binding | SEQ ID NO: 327: region in epitope 2 (QMTIKKSQNV; epitope) |
| important for binding | SEQ ID NO: 330: region in epitope 3 (RGREDKMK; epitope) |
| important for binding | SEQ ID NO: 333: region in epitope 3 (REDKMKLAL; epitope) |
| important for binding | SEQ ID NO: 335: region in epitope 3 (KMKLALKCIG; epitope) |
| important for binding | SEQ ID NO: 343: region in epitope 4 (LKKIAWKDP; epitope) |
| important for binding | SEQ ID NO: 346: region in epitope 4 (AWKDPKTVQG; epitope) |
| important for binding | SEQ ID NO: 355: region in epitope 5 (LLSPKLDS; epitope) |
| important for binding | SEQ ID NO: 356: region in epitope 5 (KLDS; epitope) |
| important for binding | SEQ ID NO: 374: region in epitope 7 (ISKLMANSA; epitope) |
